Values after ≈ are worked out from the molar mass of the structure shown. “Also recorded” adds a separate entry of the source.
Key:
[1] = Estimation of compound solubility in water (saturated solution, UV-vis); format: physicochemical; conditions: for solubility at 48 h: aqueous buffer, thermodynamic from solid, 20 mM phosphate (pH 6.5) and 50 mM KCl buffer at 23 °C
Procedure: To estimate the solubility, we prepared saturated solutions of the compounds by adding 5 mg of each selected compound to 700 μL of 20 mM phosphate buffer (pH 6.5) containing 50 mM KCl. After 48 h of gentle agitation at room temperature (RT), the solutions were spun down, and the supernatant was filtered through 0.2 μm of SPARTAN 13/0.2 RC filter units (Merck KgaA, Darmstadt, Germany) and diluted 100–200× in the same phosphate buffer. The diluted solutions were transferred into the quartz cuvette, recording UV–vis absorption spectra in the range from 200 to 600 nm on a UV-1800 UV/visible scanning spectrophotometer (Shimadzu, Kyoto, Japan) at room temperature. The compound concentrations were estimated by the single point calibration using the absorption at wavelengths higher than 240 nm outside of DMSO absorption of 2000× diluted 50 mM DMSO-dissolved stock solution in phosphate buffer.

[2] = test system: FOXO3 binding to the promoter region of DEPP1 in SH-EP/FOXO3 cells; test: DEPP1-luciferase reporter assay of FOXO3 transcriptional activity; format: cell-based; conditions: for inhibitory potency on target gene activation by FOXO3 (in words): summary of the reporter data, Figures 2, S2, S3; for potency in blocking FOXO3 binding to the promoter region of DEPP1: 25 and 12.5 μM compound; for potency in blocking FOXO3 binding to the promoter region of DEPP1, compared with 5ca: initial screen, 50 μM compound; for efficiency of blocking FOXO3 binding to the promoter region of DEPP1: lower concentrations, down to 0.78 μM
Procedure: (§1) The ability of these compounds to inhibit FOXO3 transcriptional activity was further examined by assessing their effect on FOXO3 binding to the promoter region of decidual protein induced by progesterone 1 (DEPP1) after transfecting a DEPP1-luciferase reporter plasmid into SH-EP neuroblastoma cells stably expressing a 4-hydroxy-tamoxifen (4OHT)-regulated FOXO3(A3)ERtm transgene. […] In parallel, the toxicity of the compounds was tested by assessing their effect on endogenous DEPP1 and actin promoters in SH-EP cells.
Transcriptional activation of the DEPP1 promoter by conditional FOXO3 was assessed after transfection of a DEPP1-luciferase reporter plasmid pGS c10orf10 Prom wt (DEPP1-LUC)[20] into SH-EP/FOXO3 cells using the JetPrime reagent (Polyplus, Berkeley). After 24 h of transfection, mTFP fluorescent protein expression from a cotransfected expression vector was assessed by live cell fluorescence microscopy to verify equal transfection rates before seeding cells into 24-well plates. After 48 h of transfection, the cells were pretreated with indicated concentrations of each compound (30 min) before adding 100 nM 4-hydroxy-tamoxifen (4OHT) for 3 h to activate ectopic FOXO3. Firefly-luciferase was analyzed using the Luciferase Assay System (Promega, Madison). Luminescence intensity was measured in a Hidex Chameleon—Multilabel Microplate Reader (Hidex, Turku, Finland).

[3] = test system: endogenous DEPP1 and actin promoters in SH-EP cells; test: Toxicity control: endogenous DEPP1 and actin promoter luciferase reporters; format: cell-based
Procedure: as §1
For this purpose, 2 × 10^6 SH-EP cells were transfected with either a DEPP1-LUC-reporter plasmid or an actin-LUC reporter plasmid using JetPrime reagent (Polyplus, Berkeley). Actin-LUC was constructed by inserting a 1.3 kb fragment of the chicken β actin promoter into pGL3-luc reporter vector (Promega, Madison). After 24 h of transfection, the cells were seeded into 24-well plates. After another 24 h, the cells were pretreated with indicated concentrations of compound for 3.5 h. Firefly-luciferase was analyzed using the Luciferase Assay System (Promega, Madison). Luminescence intensity was measured in a Hidex Chameleon—Multilabel Microplate Reader (Hidex, Turku, Finland).

[4] = test system: FOXO3-induced apoptotic cell death in SH-EP/FOXO3 neuroblastoma cells; test: Resazurin early cell death evaluation assay; format: cell-based; conditions: for IC50: Neuroblastoma cell, 100 nM 4OHT, 24 h, approximate, toxicity prevented accurate determination, read-out: IC50, inhibition of FOXO3-induced cell death; for IC50 / concentration above which the compound is toxic (spontaneous cell death): SH-EP/FOXO3 cells; for fold lower IC50 than that of 5ca: resazurin assay, ratio to 5ca IC50 of ∼8 μM
Procedure: Moreover, we also attempted to determine the IC50 values of 5ci, 5cj, and 5db using a resazurin early cell death evaluation assay in cells expressing a conditional FOXO3 allele that triggers apoptotic cell death upon activation.
Neuroblastoma cells SH-EP/FOXO3 were seeded into 96-well plates and treated with concentrations 0.05, 0.1, 0.2, 0.39, 0.78, 1.56, 3.125, 6.25, 12.5, 18.75, and 25 μM of 5ca and its derivatives 30 min before activating ectopic FOXO3 by 100 nM 4OHT. For 5ca derivatives, concentrations above 3.125 μM had to be excluded from the analysis due to spontaneous cell death induction. Resazurin salt (Sigma-Aldrich s.r.o., St. Louis, Missouri) was diluted to a final concentration of 0.01% (wt/vol), and 20 μL of this dilution was added to 200 μL of the cell culture in each well 24 h after FOXO3 activation. Resazurin is reduced in viable cells to red-fluorescent resoflurin, which was quantified in a Hidex Chameleon—Multilabel Microplate Reader (Hidex, Turku, Finland) at filter settings 544 nm Ex/616 nm Em.

[5] = molecular target: T1, recombinant DNA-binding domain of human FOXO3 (residues 156–269, FOXO3-DBD) (Homo sapiens, UniProt O43524); test: Fluorescence polarization (FP) assay of FOXO3-DBD binding to FAM-labeled IRE dsDNA; conditions: compound 1 μM; 125 nM FOXO3-DBD, 25 nM FAM-dsDNA
T1 construct: DNA encoding human FOXO3-DBD (residues 156–269); GST (N, cleaved yes); made in house; host or cells: E. coli BL21(DE3)
From the text: The FOXO3 inhibition potency of the phenylpyrimidinylguanidine derivatives was first examined in a fluorescence polarization (FP) assay using the recombinant DNA-binding domain of human FOXO3 (residues 156–269, denoted as FOXO3-DBD) and FAM-labeled dsDNA containing the insulin-response element (IRE) consensus motif (Figure S1).
The final concentration of DMSO in all mixtures was adjusted to 5% (v/v). Positive (only assay buffer and FAM-labeled oligonucleotide) and negative (FOXO3-DBD and FAM-labeled oligonucleotide) controls were analyzed on each plate. Milli polarization values (mP) were measured at an excitation wavelength of 485 nm and an emission wavelength of 530 nm.

FOXO3 = test system: FOXO3; design: method as in PMID 31591479, PMID 31789593; conditions: inhibit the transcriptional program of FOXO3; cited from earlier work

T1 sequence (O43524 156-269): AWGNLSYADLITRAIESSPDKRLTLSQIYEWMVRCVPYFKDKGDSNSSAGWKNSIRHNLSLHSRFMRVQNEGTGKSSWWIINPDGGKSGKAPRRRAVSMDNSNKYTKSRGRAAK

| solubility in water (in words) [1] | solubility at 48 h [1] [µM] | SMILES | inhibitory potency on target gene activation by FOXO3 (in words) [2] | potency in blocking FOXO3 binding to the promoter region of DEPP1 [2] | potency in blocking FOXO3 binding to the promoter region of DEPP1, compared with 5ca [2] | other results |
| --- | --- | --- | --- | --- | --- | --- |
| improved solubility | 7000 (≈ 1890 µg/mL) | Cc1ccc(CNC(=N)Nc2nc(C)cc(C)n2)cc1 [5cd, 1-(4,6-Dimethylpyrimidin-2-yl)-3-(4-methylbenzyl)guanidine] | did not increase the inhibitory potency | – | – | – |
| – | 100 (≈ 30.1 µg/mL) | CCCOc1ccc(NC(=N)Nc2nc(C)cc(O)n2)cc1 [5aa, 1-(4-Hydroxy-6-methylpyrimidin-2-yl)-3-(4-propoxyphenyl)guanidine] | – | – | – | – |
| sufficient solubility in water | 6000 (≈ 1640 µg/mL) | Cc1cc(C)nc(NC(=N)NCc2ccc(F)cc2)n1 [5ch, 1-(4,6-Dimethylpyrimidin-2-yl)-3-(4-fluorobenzyl)guanidine] | did not increase the inhibitory potency | – | less potent FOXO3 inhibitors than 5ca | – |
| – | 200 (≈ 78.1 µg/mL) | CCCOc1ccc(NC(=N)Nc2nc(C)cc(NCc3ccccc3)n2)cc1 [5da, 1-(4-(Benzylamino)-6-methylpyrimidin-2-yl)-3-(4-propoxyphenyl)guanidine] | – | the most potent compounds | more potent than 5ca | – |
| – | 4000 (≈ 1080 µg/mL) | Cc1cccc(CNC(=N)Nc2nc(C)cc(C)n2)c1 [5ce, 1-(4,6-Dimethylpyrimidin-2-yl)-3-(3-methylbenzyl)guanidine] | did not increase the inhibitory potency | – | less potent FOXO3 inhibitors than 5ca | – |
| limited the solubility | 200 (≈ 62.3 µg/mL) | Cc1cc(C)nc(NC(=N)NCc2ccc(C(C)(C)C)cc2)n1 [5cg, 1-(4-(tert-Butyl)benzyl)-3-(4,6-dimethylpyrimidin-2-yl)guanidine] | increased FOXO3 inhibition | the most potent compounds | more potent than 5ca | – |
| low solubility | 1700 (≈ 606 µg/mL) | CCCCNc1cc(C)nc(NC(=N)Nc2ccc(OCCC)cc2)n1 [5dc, 1-(4-(Butylamino)-6-methylpyrimidin-2-yl)-3-(4-propoxyphenyl)guanidine] | slightly lower inhibitory efficacy than 5cj, 5ci, and 5db | the most potent compounds | more potent than 5ca | – |
| – | – | CC1(C)[C@@H](OC(=O)CCC(=O)O)CC[C@]2(C)[C@H]3C(=O)C=C4[C@@H]5C[C@@](C)(C(=O)O)CC[C@]5(C)CC[C@@]4(C)[C@]3(C)CC[C@@H]12 [carbenoxolone] | – | – | – | concentration range of FOXO3 inhibition in cancer cells (FOXO3): low micromolar range |
| – | 20000 (≈ 6400 µg/mL) | CCCOc1ccc(NC(=N)Nc2nc(C)cc(Cl)n2)cc1 [5ba, 1-(4-Chloro-6-methylpyrimidin-2-yl)-3-(4-propoxyphenyl)guanidine] | – | – | more potent than 5ca | – |
| – | – | CCOc1cc(CC(=O)N[C@@H](CC(C)C)c2ccccc2N2CCCCC2)ccc1C(=O)O [repaglinide] | – | – | – | concentration range of FOXO3 inhibition in cancer cells (FOXO3): low micromolar range |
| – | 2000 (≈ 539 µg/mL) | Cc1cc(C)nc(NC(=N)NCc2ccccc2C)n1 [5cf, 1-(4,6-Dimethylpyrimidin-2-yl)-3-(2-methylbenzyl)guanidine] | did not increase the inhibitory potency | – | – | – |
| insufficient solubility in water | 4000 (≈ 965 µg/mL) | Cc1cc(C)nc(NC(=N)Nc2ccccc2)n1 [5cb, 1-(4,6-Dimethylpyrimidin-2-yl)-3-phenylguanidine] | lower ability to inhibit FOXO3 | – | less potent FOXO3 inhibitors than 5ca | – |

| SMILES | solubility in water (in words) [1] | solubility at 48 h [1] [µM] | inhibitory potency on target gene activation by FOXO3 (in words) [2] | potency in blocking FOXO3 binding to the promoter region of DEPP1 [2] | potency in blocking FOXO3 binding to the promoter region of DEPP1, compared with 5ca [2] | other results |
| --- | --- | --- | --- | --- | --- | --- |
| CCCOc1ccc(NC(=N)Nc2nc(C)cc(NCCc3ccccc3)n2)cc1 [5db, 1-(4-Methyl-6-(phenethylamino)pyrimidin-2-yl)-3-(4-propoxyphenyl)guanidine] | low solubility; also recorded: very low solubility | 300 (≈ 121 µg/mL) | strongest inhibitor | the most potent compounds | more potent than 5ca | efficiency of blocking FOXO3 binding to the promoter region of DEPP1 [2]: more efficiently than 5cg, 5da, and 5dc; toxicity compared with other derivatives ([3]; higher concentrations, Figure 2): more toxic than 5ci and 5cj at higher concentrations; IC50 [4]: ~500 nM; concentration above which the compound is toxic (spontaneous cell death) [4]: higher than 4 μM; fold lower IC50 than that of 5ca [4]: 8–16 × |
| Cc1cc(C)nc(NC(=N)NCc2cccc3ccccc23)n1 [5ci, 1-(4,6-Dimethylpyrimidin-2-yl)-3-(naphthalen-1-ylmethyl)guanidine] | low solubility | 700 (≈ 214 µg/mL) | increased FOXO3 inhibition | the most potent compounds | more potent than 5ca | efficiency of blocking FOXO3 binding to the promoter region of DEPP1 [2]: more efficiently than 5cg, 5da, and 5dc; inhibition of FOXO3-mediated transcription ([2]; lowest concentration tested, 0.78 μM): significantly inhibited; effect on endogenous DEPP1 and actin promoters (toxicity markers) ([3]; 0.78 μM, SH-EP cells): without any effect; IC50 [4]: ~500 nM; concentration above which the compound is toxic (spontaneous cell death) [4]: higher than 4 μM; fold lower IC50 than that of 5ca [4]: 8–16 × |
| CCCOc1ccc(NC(=N)Nc2nc(C)cc(C)n2)cc1 [5ca, 1-(4,6-Dimethylpyrimidin-2-yl)-3-(4-propoxyphenyl)guanidine] | – | 2000 (≈ 599 µg/mL) | – | – | – | reduction of FOXO3-DBD binding to FAM-IRE dsDNA [5]: approximately 20%; IC50 [4]: ~8000 nM; concentration above which the compound is toxic (spontaneous cell death) [4]: higher than 25 μM; concentration range of FOXO3 inhibition in cancer cells (FOXO3): low micromolar range |
| Cc1cc(C)nc(NC(=N)NCc2ccccc2)n1 [5cc, 1-Benzyl-3-(4,6-dimethylpyrimidin-2-yl)guanidine] | significantly increased solubility in water | 10000 (≈ 2550 µg/mL) | lower ability to inhibit FOXO3 | – | less potent FOXO3 inhibitors than 5ca | – |

From PMC9521028, “Lengthening the Guanidine–Aryl Linker of Phenylpyrimidinylguanidines Increases Their Potency as Inhibitors of FOXO3-Induced Gene Transcription” (ACS Omega, 2022)
